pIC50: −log10 of the molar value. Where two headings read alike, the source gives them in different places.
Columns and labels:
[1] = biological target: T1, BRG-1 (Homo sapiens, UniProt P51532); assay: ATPase catalytic activity of BRG-1, ADP-Glo in vitro biochemical assay; settings: 30 nM BRG-1, 400 μM ATP, read-out: BRG1 IC50
T1 construct: made in house; host or cells: High Five insect cells
How it was run: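 Once the ATPase reaction finished, leftover ATP was depleted over 40 minutes at room temperature. Generated ADP was next turned back into ATP during a 60-minute room-temperature step. Luciferase-derived light was then measured.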

[2] = biological target: T2, BRM (Homo sapiens, UniProt P51531); assay: ATPase catalytic activity of BRM, ADP-Glo in vitro biochemical assay; settings: for pIC50: 30 nM BRM, 400 μM ATP; for Ratio* (BRG1 IC50 (μM) divided by BRM IC50 (μM)): selectivity ratio BRG1 IC50 / BRM IC50
T2 construct: made in house; host or cells: High Five insect cells
How it was run: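 ADP-Glo luminescence, after depletion of leftover ATP and conversion of ADP, reported the activity. The 1 h room-temperature reaction held 400 μM ATP, 20 nM salmon sperm DNA and 30 nM BRM in 20 mM Tris pH 8, 20 mM MgCl2, 50 mM NaCl, 0.1% Tween-20, 1 mM DTT.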

[3] = ATPase catalytic activity, ADP-Glo

T1 sequence (P51532 whole entry): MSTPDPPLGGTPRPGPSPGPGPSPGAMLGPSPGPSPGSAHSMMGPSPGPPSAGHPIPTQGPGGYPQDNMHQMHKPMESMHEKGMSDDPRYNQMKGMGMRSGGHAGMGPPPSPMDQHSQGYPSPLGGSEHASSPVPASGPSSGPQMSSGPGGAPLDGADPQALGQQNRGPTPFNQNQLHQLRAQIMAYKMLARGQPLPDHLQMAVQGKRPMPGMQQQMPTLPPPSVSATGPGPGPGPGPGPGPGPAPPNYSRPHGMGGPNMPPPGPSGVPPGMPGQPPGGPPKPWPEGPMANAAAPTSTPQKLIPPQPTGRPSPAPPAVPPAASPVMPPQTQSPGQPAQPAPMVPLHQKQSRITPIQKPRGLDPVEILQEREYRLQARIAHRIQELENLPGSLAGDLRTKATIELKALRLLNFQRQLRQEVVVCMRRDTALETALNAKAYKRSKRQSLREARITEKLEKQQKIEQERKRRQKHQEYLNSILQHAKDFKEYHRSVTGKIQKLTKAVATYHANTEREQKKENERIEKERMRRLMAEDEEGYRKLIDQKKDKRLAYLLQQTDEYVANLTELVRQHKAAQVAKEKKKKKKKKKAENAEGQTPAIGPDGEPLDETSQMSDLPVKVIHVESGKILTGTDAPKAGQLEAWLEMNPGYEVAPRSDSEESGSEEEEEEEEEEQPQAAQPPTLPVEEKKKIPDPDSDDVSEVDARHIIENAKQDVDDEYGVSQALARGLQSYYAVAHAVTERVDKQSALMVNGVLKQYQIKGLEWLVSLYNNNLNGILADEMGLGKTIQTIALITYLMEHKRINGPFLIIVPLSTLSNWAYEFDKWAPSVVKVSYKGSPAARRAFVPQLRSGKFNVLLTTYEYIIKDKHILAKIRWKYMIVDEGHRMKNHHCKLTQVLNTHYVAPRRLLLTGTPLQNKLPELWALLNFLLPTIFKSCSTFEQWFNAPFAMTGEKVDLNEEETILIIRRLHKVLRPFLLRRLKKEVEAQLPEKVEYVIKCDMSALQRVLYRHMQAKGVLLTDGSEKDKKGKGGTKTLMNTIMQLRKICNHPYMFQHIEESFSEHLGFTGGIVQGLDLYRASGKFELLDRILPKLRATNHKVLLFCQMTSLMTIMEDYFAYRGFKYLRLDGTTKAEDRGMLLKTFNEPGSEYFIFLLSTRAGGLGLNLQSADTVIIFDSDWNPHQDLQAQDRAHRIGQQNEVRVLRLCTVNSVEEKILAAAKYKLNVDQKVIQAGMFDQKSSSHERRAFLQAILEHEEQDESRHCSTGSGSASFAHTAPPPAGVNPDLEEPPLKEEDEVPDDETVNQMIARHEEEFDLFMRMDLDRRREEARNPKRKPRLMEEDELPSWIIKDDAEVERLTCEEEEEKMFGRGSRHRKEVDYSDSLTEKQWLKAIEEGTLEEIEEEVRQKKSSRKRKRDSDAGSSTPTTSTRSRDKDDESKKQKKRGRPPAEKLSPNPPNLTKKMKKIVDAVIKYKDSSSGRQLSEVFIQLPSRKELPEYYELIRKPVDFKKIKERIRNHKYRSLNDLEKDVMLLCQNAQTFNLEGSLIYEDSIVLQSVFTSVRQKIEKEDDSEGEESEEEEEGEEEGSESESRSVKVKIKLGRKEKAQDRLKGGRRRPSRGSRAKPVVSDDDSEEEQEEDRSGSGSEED
T2 sequence (P51531 whole entry): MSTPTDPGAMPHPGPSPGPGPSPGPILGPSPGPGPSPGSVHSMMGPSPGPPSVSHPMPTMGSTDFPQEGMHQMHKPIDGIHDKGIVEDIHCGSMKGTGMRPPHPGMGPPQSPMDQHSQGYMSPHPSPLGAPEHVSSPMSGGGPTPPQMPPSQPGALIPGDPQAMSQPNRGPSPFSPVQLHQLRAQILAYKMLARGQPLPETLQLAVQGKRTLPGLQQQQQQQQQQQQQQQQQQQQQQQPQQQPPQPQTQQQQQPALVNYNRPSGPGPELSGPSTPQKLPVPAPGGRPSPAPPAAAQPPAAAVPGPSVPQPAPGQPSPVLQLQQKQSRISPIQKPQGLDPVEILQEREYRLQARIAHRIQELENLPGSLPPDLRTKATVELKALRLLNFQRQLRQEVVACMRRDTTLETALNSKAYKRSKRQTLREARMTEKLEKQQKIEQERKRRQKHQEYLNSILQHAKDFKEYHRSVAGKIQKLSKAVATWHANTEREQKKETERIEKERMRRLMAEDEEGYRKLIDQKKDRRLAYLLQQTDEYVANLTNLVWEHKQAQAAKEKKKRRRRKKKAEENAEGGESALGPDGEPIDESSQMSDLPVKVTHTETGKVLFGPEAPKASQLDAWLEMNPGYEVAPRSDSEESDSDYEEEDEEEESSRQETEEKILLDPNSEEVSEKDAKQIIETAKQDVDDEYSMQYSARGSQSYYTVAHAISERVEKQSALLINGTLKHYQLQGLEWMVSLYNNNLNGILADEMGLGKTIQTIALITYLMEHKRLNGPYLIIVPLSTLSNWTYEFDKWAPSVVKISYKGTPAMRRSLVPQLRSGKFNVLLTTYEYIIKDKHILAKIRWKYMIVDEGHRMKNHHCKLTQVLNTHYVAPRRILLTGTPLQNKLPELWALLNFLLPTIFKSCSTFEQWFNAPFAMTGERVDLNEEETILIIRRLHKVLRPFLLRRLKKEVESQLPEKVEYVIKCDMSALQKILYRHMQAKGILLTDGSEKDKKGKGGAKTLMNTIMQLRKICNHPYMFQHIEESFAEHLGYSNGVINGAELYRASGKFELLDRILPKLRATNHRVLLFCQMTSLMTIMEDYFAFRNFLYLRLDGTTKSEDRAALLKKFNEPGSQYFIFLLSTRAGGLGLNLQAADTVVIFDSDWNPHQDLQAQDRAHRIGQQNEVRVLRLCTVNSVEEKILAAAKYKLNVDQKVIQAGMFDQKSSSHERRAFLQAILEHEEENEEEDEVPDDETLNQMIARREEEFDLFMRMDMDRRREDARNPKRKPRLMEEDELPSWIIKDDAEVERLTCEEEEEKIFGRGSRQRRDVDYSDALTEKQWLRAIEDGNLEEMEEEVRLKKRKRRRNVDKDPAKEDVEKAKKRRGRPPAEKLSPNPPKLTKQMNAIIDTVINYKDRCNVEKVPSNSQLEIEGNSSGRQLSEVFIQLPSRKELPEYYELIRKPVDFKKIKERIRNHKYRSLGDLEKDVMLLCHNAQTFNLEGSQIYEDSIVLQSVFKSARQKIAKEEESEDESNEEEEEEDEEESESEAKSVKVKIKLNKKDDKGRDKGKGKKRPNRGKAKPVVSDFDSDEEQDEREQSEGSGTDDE

## C[C@@H]1CN(c2nccc(-c3ccc4cnc(CNC(=O)c5ccc(C(F)F)c(S(C)(=O)=O)c5)cc4n3)n2)C[C@H](C)O1 [Compound 157]
[1]; ADP-Glo ATPase assay
  pIC50: 6.50
[2]; ADP-Glo ATPase assay
  pIC50: 7.84
[2]
  Ratio* (BRG1 IC50 (μM) divided by BRM IC50 (μM)): 21.99

## O=C(NCc1cc2nc(-c3cncc(C4CC4)n3)ccc2cn1)c1cnc2c(c1)S(=O)(=O)CCCCC2 [Compound 450]
[1]; [3]
  pIC50: 6.74
[2]; [3]
  pIC50: 7.83
[2]; ratio of BRG1 IC50 to BRM IC50
  Ratio*: 12.27

## CC1COCc2ccc(C(=O)NCc3cc4nc(-c5cccc(N6CCC6)n5)ccc4cn3)cc2S1(=O)=O (single isomer, unassigned) [Compound 199]
[1]; ADP-Glo ATPase assay
  pIC50: 5.62
[2]; ADP-Glo ATPase assay
  pIC50: 6.60
[2]
  Ratio* (BRG1 IC50 (μM) divided by BRM IC50 (μM)): 9.56

## CS(=O)(=O)c1cc(C(=O)NCc2cc3nc(-c4cccc(N5CC[C@H]6COC[C@H]6C5)n4)ccc3cn2)ccc1Cl [Compound 76]
[1]; ADP-Glo ATPase assay
  pIC50: 6.17
[2]; ADP-Glo ATPase assay
  pIC50: 7.34
[2]
  Ratio* (BRG1 IC50 (μM) divided by BRM IC50 (μM)): 14.90

## O=C(NCc1cc2nc(N3CCOc4cnc(C5CC5)c(F)c43)ccc2cn1)c1ccc2c(c1)S(=O)(=O)CCOC2 [Compound 853]
[1]; ADP-Glo ATPase assay
  pIC50: 6.69
[2]; ADP-Glo ATPase assay
  pIC50: 7.90
[2]; ratio BRG1 IC50 / BRM IC50
  Ratio*: 16.24

## CC1CCc2ccc(C(=O)NCc3cc4nc(-c5cccc(N6C[C@@H](C)O[C@@H](C)C6)n5)ccc4cn3)cc2S1(=O)=O (some centres unmarked) [Compound 324]
[1]; [3]
  pIC50: 6.21
[2]; [3]
  pIC50: 7.61
[2]; ratio of BRG1 IC50 to BRM IC50
  Ratio*: 24.73

## CNc1cccc(-c2ccc3cnc(CNC(=O)c4ccc5c(c4)S(=O)(=O)CCOC5)cc3n2)n1 [Compound 274]
[1]; ADP-Glo ATPase assay
  pIC50: 6.23
[2]; ADP-Glo ATPase assay
  pIC50: 7.16
[2]
  Ratio* (BRG1 IC50 (μM) divided by BRM IC50 (μM)): 8.46

## CO[C@H]1C[C@H](c2cccc(-c3ccc4cnc(CNC(=O)c5ccc6c(c5)S(=O)(=O)CCOC6)cc4n3)n2)C1 [Compound 106]
[1]; ADP-Glo ATPase assay
  pIC50: 6.18
[2]; ADP-Glo ATPase assay
  pIC50: 7.12
[2]
  Ratio* (BRG1 IC50 (μM) divided by BRM IC50 (μM)): 8.76

## COCc1nc2c(cc1C)CCCN2c1ccc2cnc(CNC(=O)c3ccc4c(c3)S(=O)(=O)CCOC4)cc2n1 [Compound 626]
[1]; [3]
  pIC50: 6.34
[2]; [3]
  pIC50: 7.70
[2]; ratio of BRG1 IC50 to BRM IC50
  Ratio*: 23.08

## CC1(C)CCN(c2ccc3cnc(CNC(=O)c4ccc5c(c4)S(=O)(=O)CCOC5)cc3n2)c2ncccc21 [Compound 752]
[1]; ADP-Glo ATPase assay
  pIC50: 5.42
[2]; ADP-Glo ATPase assay
  pIC50: 5.98
[2]; ratio BRG1 IC50 / BRM IC50
  Ratio*: 3.68

## COCC1CN(c2ccc3cnc(CNC(=O)c4ccc5c(c4)S(=O)(=O)CCOC5)cc3n2)c2ccccc2O1 (centres unmarked) [Compound 716]
[1]; ADP-Glo ATPase assay
  pIC50: 5.32
[2]; ADP-Glo ATPase assay
  pIC50: 5.76
[2]; ratio BRG1 IC50 / BRM IC50
  Ratio*: 2.75

## Cc1ccc2c(c1)CCCN2c1ccc2cnc(CNC(=O)c3ccc4c(c3)S(=O)(=O)CCOC4)cc2n1 [Compound 350]
[1]; [3]
  pIC50: 6.98
[2]; [3]
  pIC50: 8.09
[2]; ratio of BRG1 IC50 to BRM IC50
  Ratio*: 12.99

## COc1c(-c2ccc3cnc(CNC(=O)c4ccc5c(c4)S(=O)(=O)CCOC5)cc3n2)cccc1C1CC1 [Compound 430]
[1]; [3]
  pIC50: 5.62
[2]; [3]
  pIC50: 6.32
[2]; ratio of BRG1 IC50 to BRM IC50
  Ratio*: 5.06

## O=C(NCc1cc2nc(N3CCCc4cc(Cl)cnc43)ccc2cn1)c1ccc2c(c1)S(=O)(=O)CCOC2 [Compound 588]
[1]; [3]
  pIC50: 6.39
[2]; [3]
  pIC50: 7.54
[2]; ratio of BRG1 IC50 to BRM IC50
  Ratio*: 14.25

## COCCN1CCOc2c(-c3ccc4cnc(CNC(=O)c5ccc(Cl)c(S(C)(=O)=O)c5)cc4n3)cccc21 [Compound 88]
[1]; ADP-Glo ATPase assay
  pIC50: 6.27
[2]; ADP-Glo ATPase assay
  pIC50: 7.47
[2]
  Ratio* (BRG1 IC50 (μM) divided by BRM IC50 (μM)): 15.63

## COc1cnc2c(c1C)CCCN2c1ccc2cnc(CNC(=O)c3ccc4c(c3)S(=O)(=O)CCOC4)cc2n1 [Compound 637]
[1]; [3]
  pIC50: 6.68
[2]; [3]
  pIC50: 7.70
[2]; ratio of BRG1 IC50 to BRM IC50
  Ratio*: 10.34

## COCCN(C)c1cccc(-c2ccc3cnc(CNC(=O)c4cnc(C(F)F)c(S(C)(=O)=O)c4)cc3n2)n1 [Compound 105]
[1]; ADP-Glo ATPase assay
  pIC50: 6.03
[2]; ADP-Glo ATPase assay
  pIC50: 7.16
[2]
  Ratio* (BRG1 IC50 (μM) divided by BRM IC50 (μM)): 13.41

## COc1nn([C@H]2C[C@H](F)C2)cc1-c1ccc2cnc(CNC(=O)c3ccc4c(c3)S(=O)(=O)CCOC4)cc2c1 [Compound 149]
[1]; ADP-Glo ATPase assay
  pIC50: 6.09
[2]; ADP-Glo ATPase assay
  pIC50: 7.44
[2]
  Ratio* (BRG1 IC50 (μM) divided by BRM IC50 (μM)): 22.13

## COCCN(c1cccc(-c2ccc3cnc(CNC(=O)c4ccc5c(c4)S(=O)(=O)CCOC5)cc3n2)n1)C1CCC1 [Compound 374]
[1]; [3]
  pIC50: 7.15
[2]; [3]
  pIC50: 8.06
[2]; ratio of BRG1 IC50 to BRM IC50
  Ratio*: 8.04

## O=C(NCc1cc2nc(N3CCOc4ccc([C@H]5CC5(F)F)nc43)ccc2cn1)c1ccc2c(c1)S(=O)(=O)CCOC2 [Compound 700]
[1]; [3]
  pIC50: 6.12
[2]; [3]
  pIC50: 7.84
[2]; ratio of BRG1 IC50 to BRM IC50
  Ratio*: 52.11

## Cc1cnc2c(c1)CCCN2c1ccc2cnc(CNC(=O)c3ccc4c(c3)S(=O)(=O)[C@@H](C)COC4)cc2n1 [Compound 396]
[1]; [3]
  pIC50: 6.99
[2]; [3]
  pIC50: 8.23
[2]; ratio of BRG1 IC50 to BRM IC50
  Ratio*: 17.40

## O=C(NCc1cc2nc(N3CCCc4cc(C5CC5)ncc43)ccc2cn1)c1ccc2c(c1)S(=O)(=O)CCOC2 [Compound 725]
[1]; ADP-Glo ATPase assay
  pIC50: 6.53
[2]; ADP-Glo ATPase assay
  pIC50: 7.57
[2]; ratio BRG1 IC50 / BRM IC50
  Ratio*: 10.95

## CO[C@H]1CCS(=O)(=O)c2cc(C(=O)NCc3cc4nc(-c5cccc(N6C[C@@H](C)O[C@@H](C)C6)n5)ccc4cn3)ccc2C1 [Compound 444]
[1]; [3]
  pIC50: 7.56
[2]; [3]
  pIC50: 7.89
[2]; ratio of BRG1 IC50 to BRM IC50
  Ratio*: 2.12

## C[C@@H]1CN(c2cccc(-c3ccc4cnc(CNC(=O)c5ccc6c(c5)S(=O)(=O)CCOC6)cc4n3)n2)C[C@@H](C)O1 [Compound 215]
[1]; ADP-Glo ATPase assay
  pIC50: 7.18
[2]; ADP-Glo ATPase assay
  pIC50: 8.15
[2]
  Ratio* (BRG1 IC50 (μM) divided by BRM IC50 (μM)): 9.47

## COCc1cc2c(nc1C(F)F)N(c1ccc3cnc(CNC(=O)c4ccc5c(c4)S(=O)(=O)CCOC5)cc3n1)CCC2 [Compound 835]
[1]; ADP-Glo ATPase assay
  pIC50: 6.81
[2]; ADP-Glo ATPase assay
  pIC50: 7.77
[2]; ratio BRG1 IC50 / BRM IC50
  Ratio*: 9.15

## C[C@@H]1CN(c2cccc(-c3ccc4cnc(CNC(=O)c5ccc6c(c5)S(=O)(=O)CC[C@@H]6C)cc4n3)n2)C[C@H](C)O1 [Compound 483]
[1]; [3]
  pIC50: 5.91
[2]; [3]
  pIC50: 7.36
[2]; ratio of BRG1 IC50 to BRM IC50
  Ratio*: 27.99

## Cn1ccc2c(-c3ccc4cnc(CNC(=O)c5ccc6c(c5)S(=O)(=O)CCOC6)cc4n3)cccc21 [Compound 245]
[1]; ADP-Glo ATPase assay
  pIC50: 6.75
[2]; ADP-Glo ATPase assay
  pIC50: 7.73
[2]
  Ratio* (BRG1 IC50 (μM) divided by BRM IC50 (μM)): 9.42

## Cc1cnc2c(c1)OCCN2c1ccc2cnc(CNC(=O)c3cc(F)c4c(c3)S(=O)(=O)CCOC4)cc2n1 [Compound 550]
[1]; [3]
  pIC50: 7.19
[2]; [3]
  pIC50: 8.28
[2]; ratio of BRG1 IC50 to BRM IC50
  Ratio*: 12.09

## CC(=O)N1CCOc2c(-c3ccc4cnc(CNC(=O)c5ccc6c(c5)S(=O)(=O)CCOC6)cc4n3)cccc21 [Compound 185]
[1]; ADP-Glo ATPase assay
  pIC50: 5.87
[2]; ADP-Glo ATPase assay
  pIC50: 6.45
[2]
  Ratio* (BRG1 IC50 (μM) divided by BRM IC50 (μM)): 3.75

## O=C(NCc1cc2nc(N3CCCc4c(Cl)ccnc43)ccc2cn1)c1ccc2c(c1)S(=O)(=O)CCOC2 [Compound 478]
[1]; [3]
  pIC50: 6.60
[2]; [3]
  pIC50: 7.59
[2]; ratio of BRG1 IC50 to BRM IC50
  Ratio*: 9.80

## CN(C)c1ccnc2c1CCCN2c1ccc2cnc(CNC(=O)c3ccc4c(c3)S(=O)(=O)CCOC4)cc2n1 [Compound 837]
[1]; ADP-Glo ATPase assay
  pIC50: 6.79
[2]; ADP-Glo ATPase assay
  pIC50: 7.48
[2]; ratio BRG1 IC50 / BRM IC50
  Ratio*: 4.95

## CS(=O)(=O)c1cc(C(=O)NCc2cc3nc(-c4cccc(N5CC[C@@H]6OCC[C@H]6C5)n4)ccc3cn2)ccc1C(F)F [Compound 123]
[1]; ADP-Glo ATPase assay
  pIC50: 6.54
[2]; ADP-Glo ATPase assay
  pIC50: 7.63
[2]
  Ratio* (BRG1 IC50 (μM) divided by BRM IC50 (μM)): 12.51

## COc1nc(C(C)(F)F)ccc1-c1ccc2cnc(CNC(=O)c3ccc4c(c3)S(=O)(=O)[C@@H](C)COC4)cc2n1 [Compound 542]
[1]; [3]
  pIC50: 6.64
[2]; [3]
  pIC50: 7.77
[2]; ratio of BRG1 IC50 to BRM IC50
  Ratio*: 13.60

## O=C(NCc1cc2nc(N3CCc4ccccc43)ccc2cn1)c1ccc2c(c1)S(=O)(=O)CCOC2 [Compound 50]
[1]; ADP-Glo ATPase assay
  pIC50: 5.82
[2]; ADP-Glo ATPase assay
  pIC50: 6.83

## COC[C@H](C)Nc1cccc(-c2ccc3cnc(CNC(=O)c4ccc(C(F)F)c(S(C)(=O)=O)c4)cc3n2)n1 [Compound 61]
[1]; ADP-Glo ATPase assay
  pIC50: 5.30
[2]; ADP-Glo ATPase assay
  pIC50: 6.02
[2]
  Ratio* (BRG1 IC50 (μM) divided by BRM IC50 (μM)): 5.23

## O=C(NCc1cc2nc(-c3ccc(F)c(OC(F)F)n3)ccc2cn1)c1ccc2c(c1)S(=O)(=O)CCOC2 [Compound 137]
[1]; ADP-Glo ATPase assay
  pIC50: 6.42
[2]; ADP-Glo ATPase assay
  pIC50: 7.65
[2]
  Ratio* (BRG1 IC50 (μM) divided by BRM IC50 (μM)): 16.99

## O=C(NCc1cc2nc(N3CCCc4ccc(OCC5CCCO5)cc43)ccc2cn1)c1ccc2c(c1)S(=O)(=O)CCOC2 (centres unmarked) [Compound 747]
[1]; ADP-Glo ATPase assay
  pIC50: 6.93
[2]; ADP-Glo ATPase assay
  pIC50: 8.06
[2]; ratio BRG1 IC50 / BRM IC50
  Ratio*: 13.42
